From patent US11234954B2, “Low-dose doxepin for treatment of sleep disorders in elderly patients” (Pernix Sleep, Inc., priority 2006, dated 2022)
Where two headings read alike, the source gives them in different places.

Legend:
[1] = system: primary elderly insomnia patients with sleep maintenance difficulties; type: in vivo, human
Procedure: Subjects were females and males, 65 years of age or older, with at least a 3-month history of primary insomnia (as defined in the Diagnostic and Statistical Manual of Mental Disorders, Fourth Edition, Text Revision), who reported experiencing at least 60 minutes of Wake After Sleep Onset (WASO), at least 30 minutes of Latency to Sleep Onset (LSO), and no more than 6.5 hours of Total Sleep Time (TST) on at least 4 of 7 consecutive nights prior to PSG Screening.
Primary Efficacy Variable: The primary efficacy variable was WASO on Night 1.
Additional PSG Variables: Additional efficacy variables assessed on each PSG recording night during the Double-blind Treatment Period were WASO (Night 15, Night 29, Night 57, and Night 85); WTDS; TST; Sleep Efficiency (SE) overall, by third of the night, the last quarter of the night, and hour of the night; LPS; Latency to Stage 2 Sleep; Number of Awakenings After Sleep Onset (NAASO) overall and by hour; Total Wake Time (TWT) overall and by hour; Wake Time After Sleep (WTAS); and sleep architecture (including percentage and minutes of Stage 1, 2, and 3-4 sleep; percentage and minutes of rapid eye movement [REM] and non-REM sleep; and Latency to REM Sleep.)

[2] = system: primary elderly insomnia patients with sleep maintenance difficulties; assay: Clinical Global Impressions (CGI), Phase III elderly study (Example 2); type: in vivo, human
Procedure: Subjective Variables: Subjective efficacy variables were subjective TST (sTST), subjective WASO (sWASO), LSO, subjective NAASO (sNAASO), and sleep quality. These variable were assessed using a questionnaire completed in the morning following each PSG recording night. Drowsiness, ability to function, and total nap time during the day were assessed using an evening questionnaire completed prior to PSG recording at Nights −6, −5, 1, 15, 29, 57, and 85. Other secondary subjective efficacy variables included the 2-item Clinical Global Impressions (CGI) scale for severity of illness and therapeutic effect completed by a clinician; the 5-item CGI scale pertaining to therapeutic effect completed by the subject; the Insomnia Severity Index (ISI) completed by the subject, and a subjective assessment of sTST, LSO, and sleep quality collected through the IVRS.
Clinical Global Impressions (CGI) ns (CGI) consist of two questions addressed to the clinician relating to the severity of illness and therapeutic effect of the study drug and five questions addressed to the patient relating to the therapeutic effect of the drug.

[3] = system: Adult Patients (Ages 18-64) with Primary Insomnia; assay: Adverse events and safety, adult crossover study (Example 3); type: in vivo, human
Procedure: A randomized, multi-center, double-blind, placebo-controlled, four-period crossover, dose-response study was designed to assess the effects of doxepin (1 mg, 3 mg and 6 mg) compared with placebo in patients with primary sleep maintenance insomnia.
Patients who qualified for study entry, based on the screening PSG assessments, were randomized to a treatment sequence using a Latin square design. A final study visit was performed for patients either after completion of the four treatment periods or upon discontinuation from the study. Efficacy assessments were made at each visit and safety assessments were performed throughout the study.
The main inclusion criteria were male and/or female patients, aged 18 to 64 years, in good general health with at least a 3-month history of DSM-IV-defined primary insomnia, reporting each of the following on four of seven nights prior to PSG screening: ≤6.5 hours of total sleep time (TST), ≥60 min of WASO and ≥20 min of LSO. Doxepin HCl 1 mg, 3 mg and 6 mg capsules, and placebo capsules, were provided as a single dose for oral administration.

[4] = in vivo; cited from earlier work
[5] = system: primary elderly insomnia patients with sleep maintenance difficulties; assay: Safety and TEAEs, Phase III elderly study (Example 2)
Procedure: A phase III, randomized, double-blind, placebo-controlled, parallel-group, multicenter study was conducted to assess the long term efficacy and safety of two dose levels of doxepin HCl, 1 mg and 3 mg, in primary elderly insomnia patients with sleep maintenance difficulties.
Doxepin 1 mg tablets or 3 mg tablets (lot number 3044567) were administered as a single oral dose for 85 consecutive nights during the 12-week Double-blind Treatment Period.

SMILES: CN(C)CCC=C1c2ccccc2COc2ccccc21 (mixture of isomers) [Doxepin]
- LS mean WASO shorter compared with the placebo group ([1]; Night 1, 1 mg): 17.8 min
- LPS, mean (SD) ([1]; Night 1, 1 mg, ITT N = 77): 38.8 (29.58) minutes
- SE Overall, mean (SD) ([1]; Night 1, 1 mg, ITT N = 77): 74.8 (11.05) %
- TST, mean (SD) ([1]; Night 1, 1 mg, ITT N = 77): 359.1 (53.05) minutes
- WTAS, mean (SD) ([1]; Night 1, 1 mg, ITT N = 77): 8.9 (18.84) minutes
- WASO, Diff. of LS Mean versus placebo ([1]; Night 1, 1 mg, ITT n = 77): -17.8 min
- WASO, Mean (Primary Efficacy Variable) ([1]; Night 1, 1 mg, ITT n = 77): 91.8 min
- LS mean WASO shorter compared with the placebo group ([1]; Night 1, 3 mg): 33.8 min
- LPS, mean (SD) ([1]; Night 1, 3 mg, ITT N = 82): 28.6 (20.53) minutes
- SE Overall, mean (SD) ([1]; Night 1, 3 mg, ITT N = 82): 79.8 (9.21) %
- TST, mean (SD) ([1]; Night 1, 3 mg, ITT N = 82): 382.9 (44.23) minutes
- WTAS, mean (SD) ([1]; Night 1, 3 mg, ITT N = 82): 4.7 (14.61) minutes
- WASO, Diff. of LS Mean versus placebo ([1]; Night 1, 3 mg, ITT n = 82): -33.8 min
- WASO, Mean (Primary Efficacy Variable) ([1]; Night 1, 3 mg, ITT n = 82): 74.5 min
- LPS, mean (SD) ([1]; Night 85, 1 mg, ITT N = 77): 29.0 (26.45) minutes
- SE Overall, mean (SD) ([1]; Night 85, 1 mg, ITT N = 77): 75.1 (9.83) %
- TST, mean (SD) ([1]; Night 85, 1 mg, ITT N = 77): 360.5 (47.17) minutes
- WTAS, mean (SD) ([1]; Night 85, 1 mg, ITT N = 77): 10.8 (21.78) minutes
- WASO, Diff. of LS Mean versus placebo ([1]; Night 85, 1 mg, ITT n = 69): -14.6 min
- WASO, Mean ([1]; Night 85, 1 mg, ITT n = 69): 97.0 min
- LPS, mean (SD) ([1]; Night 85, 3 mg, ITT N = 82): 37.5 (32.74) minutes
- SE Overall, mean (SD) ([1]; Night 85, 3 mg, ITT N = 82): 77.9 (8.80) %
- TST, mean (SD) ([1]; Night 85, 3 mg, ITT N = 82): 373.7 (42.24) minutes
- WTAS, mean (SD) ([1]; Night 85, 3 mg, ITT N = 82): 5.4 (13.20) minutes
- WASO, Diff. of LS Mean versus placebo ([1]; Night 85, 3 mg, ITT n = 74): -33.2 min
- WASO, Mean ([1]; Night 85, 3 mg, ITT n = 74): 75.7 min
- mean CGI (clinician-rated) severity of illness and therapeutic effect scores compared with placebo ([2]; Night 85, both doxepin treatment groups (1 mg, 3 mg)): statistically significant improvements
- CGI (subject-rated) scale of therapeutic effect, all five parameters, compared with placebo ([2]; after 85 nights of treatment, both doxepin groups (1 mg, 3 mg)): statistically significant improvements
- HEADACHE: Number of Events ([3]; 1 mg, N = 66): 3
- HEADACHE: Number of Patients ([3]; 1 mg, N = 66): 3 (5%)
- NASAL CONGESTION: Number of Events ([3]; 1 mg, N = 66): 1
- NASAL CONGESTION: Number of Patients ([3]; 1 mg, N = 66): 1 (2%)
- HEADACHE: Number of Events ([3]; 3 mg, N = 66): 0
- HEADACHE: Number of Patients ([3]; 3 mg, N = 66): 0 (0%)
- NASAL CONGESTION: Number of Events ([3]; 3 mg, N = 66): 0
- NASAL CONGESTION: Number of Patients ([3]; 3 mg, N = 66): 0 (0%)
- HEADACHE: Number of Events ([3]; 6 mg, N = 67): 1
- HEADACHE: Number of Patients ([3]; 6 mg, N = 67): 1 (1%)
- NASAL CONGESTION: Number of Events ([3]; 6 mg, N = 67): 0
- NASAL CONGESTION: Number of Patients ([3]; 6 mg, N = 67): 0 (0%)
- mean half-life [4]: 17 h
- deaths during the study or within 30 days following last dose ([5]; 1 mg and 3 mg): no reported deaths
- Infections and Infestations, subjects (%) ([5]; 1 mg, N = 77): 12 (16%)
- Upper respiratory tract infection, subjects (%) ([5]; 1 mg, N = 77): 2 (3%)
- Urinary tract infection, subjects (%) ([5]; 1 mg, N = 77): 2 (3%)
- Infections and Infestations, subjects (%) ([5]; 3 mg, N = 82): 11 (13%)
- Upper respiratory tract infection, subjects (%) ([5]; 3 mg, N = 82): 1 (1%)
- Urinary tract infection, subjects (%) ([5]; 3 mg, N = 82): 0 (0%)
